From the supplement of paper PMC10307832

Assays:
Test in all cases: relative viability (nuclei count vs DMSO), 5 days (fraction); higher = more cells survive
[1] = compound: CS(=O)(=O)N1CCN(Cc2cc3nc(-c4cccc5[nH]ncc45)nc(N4CCOCC4)c3s2)CC1 [Pictilisib] + C[C@@H](Oc1cc(-c2cnn(C3CCNCC3)c2)cnc1N)c1c(Cl)ccc(F)c1Cl [Crizotinib] (partner 1 µM)
Summary of the method: (§1)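 The day after seeding in 1536-well plates, lung cancer cell lines were treated by pin tool with a single drug, or with a fixed anchor-drug dose together with five library-drug doses (not always all listed) in √10 steps. After 5 days, a combined fix-and-stain solution (final 0.05% Triton X-100, 1% formaldehyde, 1 ug/ml Hoechst) was added. Nuclei counted on 4× images gave relative viability as treated counts over vehicle counts, reported as the median of duplicate plates.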

[2] = compound: NC1(c2ccc(-c3nc4ccn5c(=O)[nH]nc5c4cc3-c3ccccc3)cc2)CCC1 [MK-2206] + CS(=O)(=O)CCNCc1ccc(-c2ccc3ncnc(Nc4ccc(OCc5cccc(F)c5)c(Cl)c4)c3c2)o1 [Lapatinib] (partner 2 µM)
Summary of the method: as §1

[3] = compound: CS(=O)(=O)N1CCN(Cc2cc3nc(-c4cccc5[nH]ncc45)nc(N4CCOCC4)c3s2)CC1 [Pictilisib] + N=C(N)NC(=N)NCCc1ccccc1 [Phenformin] (partner 250 µM)
Summary of the method: as §1

[4] = compound: NC1(c2ccc(-c3nc4ccn5c(=O)[nH]nc5c4cc3-c3ccccc3)cc2)CCC1 [MK-2206] + Nc1nc2[nH]cc(CCc3ccc(C(=O)N[C@@H](CCC(=O)O)C(=O)O)cc3)c2c(=O)[nH]1 [Pemetrexed] (partner 0.2 µM)
Summary of the method: as §1

[5] = compound: CS(=O)(=O)N1CCN(Cc2cc3nc(-c4cccc5[nH]ncc45)nc(N4CCOCC4)c3s2)CC1 [Pictilisib] + NC(=O)Nc1cc(-c2cccc(F)c2)sc1C(=O)N[C@H]1CCCNC1 [AZD7762] (partner 0.2 µM)
Summary of the method: as §1

| Cell Line | relative viability ([1]; first compound 0.02 µM) | relative viability ([1]; first compound 0.06325 µM) | relative viability ([1]; first compound 0.6325 µM) | relative viability ([1]; first compound 2 µM) | relative viability ([2]; first compound 0.03162 µM) | relative viability ([2]; first compound 0.3162 µM) | relative viability ([2]; first compound 1 µM) | relative viability ([3]; first compound 0.02 µM) | relative viability ([3]; first compound 0.06325 µM) | relative viability ([3]; first compound 0.6325 µM) | relative viability ([3]; first compound 2 µM) | relative viability ([2]; first compound 0.01 µM) | relative viability ([4]; first compound 0.01 µM) | relative viability ([4]; first compound 0.03162 µM) | relative viability ([4]; first compound 0.3162 µM) | relative viability ([4]; first compound 1 µM) | relative viability ([5]; first compound 0.02 µM) | relative viability ([5]; first compound 0.06325 µM) | relative viability ([5]; first compound 0.6325 µM) | relative viability ([5]; first compound 2 µM) |
| --- | --- | --- | --- | --- | --- | --- | --- | --- | --- | --- | --- | --- | --- | --- | --- | --- | --- | --- | --- | --- |
| IA-LM | 0.649 | 0.75 | 0.628 | 0.534 | 0.765 | 0.695 | 0.438 | – | – | – | – | – | – | – | – | – | – | – | – | – |
| COR-L 105 | 0.814 | 0.913 | 0.988 | 0.418 | 0.42 | 0.317 | 0.335 | 0.584 | 0.508 | 0.362 | 0.272 | 0.382 | 1.22 | 1.08 | 1.29 | 1.28 | – | – | – | – |
| NCI-H2009 | 1.02 | 1.02 | 1.04 | 0.705 | 1.01 | 0.936 | 0.986 | 0.501 | 0.504 | 0.438 | 0.365 | 0.825 | 1.05 | 1.01 | 1.05 | 1.03 | – | – | – | – |
| NCI-H1623 | – | – | – | – | – | – | – | 0.646 | 0.61 | 0.54 | 0.274 | – | – | – | – | – | – | – | – | – |
| COR-L23 | 0.584 | 0.75 | 0.668 | 0.594 | 1.03 | 0.92 | 1.1 | 0.428 | 0.471 | 0.522 | 0.424 | 0.949 | 0.184 | 0.187 | 0.195 | 0.172 | – | – | – | – |
| SK-MES-1 | 1.04 | 0.971 | 0.804 | 0.492 | 0.452 | 0.429 | 0.38 | 0.692 | 0.686 | 0.621 | 0.558 | 0.461 | 0.881 | 0.938 | 0.899 | 0.816 | – | – | – | – |
| NCI-H727 | 0.934 | 0.912 | 0.76 | 0.401 | 1.05 | 0.856 | 0.513 | 0.564 | 0.529 | 0.554 | 0.38 | 0.873 | – | – | – | – | 0.636 | 0.545 | 0.607 | 0.31 |
| NCI-H520 | 0.826 | 0.884 | 0.504 | 0.197 | 0.874 | 0.415 | 0.238 | 0.613 | 0.516 | 0.19 | 0.2 | 0.85 | 0.612 | 0.68 | 0.351 | 0.183 | – | – | – | – |
| SW 1573 | 0.817 | 0.791 | 0.626 | 0.268 | 1.15 | 0.987 | 0.982 | 0.387 | 0.318 | 0.215 | 0.166 | 0.88 | 0.782 | 0.793 | 0.726 | 0.713 | – | – | – | – |
| NCI-H2023 | 0.513 | 0.533 | 0.331 | 0.201 | 0.818 | 0.708 | 0.492 | 0.43 | 0.376 | 0.275 | 0.169 | 0.827 | 0.266 | 0.195 | 0.25 | 0.209 | – | – | – | – |
| SK-LU-1 | 0.957 | 1.17 | 0.945 | 0.697 | 0.861 | 0.822 | 0.967 | 0.648 | 0.509 | 0.393 | 0.308 | 0.91 | 0.964 | 0.963 | 1.04 | 0.962 | – | – | – | – |
| ABC-1 | 0.96 | 1.2 | 1.2 | 0.507 | 1.29 | 1.08 | 1.13 | 0.254 | 0.214 | 0.195 | 0.209 | 1.32 | – | – | – | – | 1 | 0.741 | 0.657 | 0.609 |
| EBC-1 | 0.205 | 0.211 | 0.213 | 0.175 | 0.2 | 0.174 | 0.224 | – | – | – | – | 0.217 | – | – | – | – | – | – | – | – |
| NCI-H1703 | 0.532 | 0.666 | 0.261 | 0.178 | 0.959 | 0.71 | 0.571 | – | – | – | – | 1.24 | – | – | – | – | 0.148 | 0.175 | 0.104 | 0.119 |
| NCI-H1563 | 0.924 | 0.889 | 0.761 | 0.581 | 0.911 | 0.783 | 0.711 | 0.663 | 0.692 | 0.56 | 0.501 | 0.843 | 0.746 | 0.771 | 0.697 | 0.744 | – | – | – | – |
| NCI-H2228 | 0.437 | 0.473 | 0.311 | 0.168 | 1.01 | 0.641 | 0.373 | 0.335 | 0.38 | 0.18 | 0.141 | 1.12 | 0.333 | 0.307 | 0.336 | 0.318 | – | – | – | – |
| NCI-H1299 | 0.99 | 1.03 | 1.05 | 0.933 | 0.946 | 1 | 1.02 | – | – | – | – | 0.963 | – | – | – | – | – | – | – | – |
| A549 | 0.694 | 0.729 | 0.436 | 0.199 | 0.988 | 0.932 | 0.81 | 0.235 | 0.177 | 0.155 | 0.0936 | 0.874 | – | – | – | – | – | – | – | – |
| NCI-H1650 | 1.02 | 1.1 | 1.2 | 0.395 | 0.768 | 0.687 | 0.784 | 0.492 | 0.318 | 0.247 | 0.176 | 0.685 | 0.3 | 0.379 | 0.319 | 0.347 | – | – | – | – |
| NCI-H1648 | – | – | – | – | – | – | – | – | – | – | – | – | 0.719 | 0.651 | 0.691 | 0.786 | 0.777 | 0.735 | 0.56 | 0.316 |
| NCI-H661 | – | 1.01 | 1.24 | 0.729 | 0.581 | 0.503 | 0.51 | 0.302 | 0.282 | 0.269 | 0.216 | 0.422 | 0.986 | 0.91 | 0.876 | 0.877 | – | – | – | – |
| Calu-6 | 0.751 | 0.969 | 0.728 | 0.582 | 1.13 | 1.09 | 0.974 | – | – | – | – | 1.05 | – | – | – | – | – | – | – | – |
